Laboratory results reported in ChEMBL document CHEMBL5244233 (Eur J Med Chem, 2020).

Columns and labels:
MDA-MB-231 = experiment: Inhibition of cell migration in human MDA-MB-231 cells measured upto 48 hrs by transwell chamber assay; format: functional
[1] = target: Cannabinoid receptor 1 (Mus musculus) (UniProt P47746); experiment: Antagonist activity at mouse brain membrane CB1 receptor assessed as stimulation of [35S]-GTPgammaS binding by measuring apparent dissociation constant incubated for 60 mins by liquid scintillation counting method; format: cell membranes; conditions: filed as antagonist
Rattus norvegicus [2] = organism: Rattus norvegicus; experiment: Protection against LiCl-induced nausea in rat assessed as reduction in conditioned gaping; format: functional; conditions: read-out: MED
4T1 = experiment: Cytotoxicity against mouse 4T1 cells assessed as inhibition of cell proliferation by MTT assay; format: functional, cell-based
Caco-2 = experiment: Cytotoxicity against human Caco-2 cells assessed as reduction of cell viability incubated for 24 hrs by MTT assay; format: functional, cell-based; conditions: Caco-2, 24 h
DU-145 = experiment: Cytotoxicity against human DU-145 cells assessed as inhibition of cell growth incubated for 72 hrs by MTT assay; format: functional, cell-based; conditions: DU-145, 72 h
[3] = Induction of apoptosis in gamma-irradiation induced human U87 cells by PI staining based flow cytometric analysis; format: functional, U-87MG ATCC; conditions: U-87 MG, light or radiation study, read-out: MEC
[4] = Reduction of triglyceride level in mouse 3T3-L1 cells incubated for 3 days by AdipoRed staining based fluorescence analysis; format: functional; conditions: 3T3-L1, 72 h, time 3 day, read-out: MEC
Cannabinoid receptor 1 = Cannabinoid receptor 1 (Rattus norvegicus, UniProt P20272); experiment: Displacement of [3H]HU243 from rat brain membrane CB1 receptor assessed as inhibition constant incubated for 90 mins; format: cell membranes
Rattus norvegicus [5] = experiment: Protection against LiCl-induced nausea in ip dosed rat assessed as reduction in conditioned gaping; format: functional

Chain of Cannabinoid receptor 1 (P20272 whole entry): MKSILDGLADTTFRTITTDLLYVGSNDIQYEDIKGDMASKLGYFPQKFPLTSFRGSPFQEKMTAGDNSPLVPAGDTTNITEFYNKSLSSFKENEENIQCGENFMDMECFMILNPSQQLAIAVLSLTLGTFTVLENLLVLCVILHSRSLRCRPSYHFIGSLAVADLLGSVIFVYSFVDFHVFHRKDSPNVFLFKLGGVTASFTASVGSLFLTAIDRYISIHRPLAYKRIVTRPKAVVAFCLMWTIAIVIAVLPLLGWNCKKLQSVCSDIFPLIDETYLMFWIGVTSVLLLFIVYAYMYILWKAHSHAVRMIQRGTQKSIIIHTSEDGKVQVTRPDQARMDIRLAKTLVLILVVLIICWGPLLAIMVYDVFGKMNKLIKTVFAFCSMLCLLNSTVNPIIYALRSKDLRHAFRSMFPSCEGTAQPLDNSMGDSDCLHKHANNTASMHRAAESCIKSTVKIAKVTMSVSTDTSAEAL
Chain of Cannabinoid receptor 1 (Mus musculus) (P47746 whole entry): as the sequence (P20272 whole entry) above, with E95D counted along it

Compound `C=C(C)[C@@H]1CCC(C)=C[C@H]1c1c(O)cc(CCCCC)c(C(=O)O)c1O` [CANNABIDIOLIC ACID] has an MIC (MDA-MB-231) of at most 5 µM, a Kb [1] of 1.8 µM and a minimal effective dose (Rattus norvegicus [2]) of 2.5 µg/kg.

In the case of `C=C(C)[C@@H]1CCC(C)=C[C@H]1c1c(O)cc(CCCCC)cc1O` [CANNABIDIOL], the IC50 (4T1) is reported as 1.8 µM, the IC50 (Caco-2) is reported as 3.73 µM and the IC50 (DU-145) is reported as 5.4 µM. For the same compound, the minimal effective concentration [3] was at most 5 µM and the minimal effective concentration [4] was at most 5 µM.

`C=C(C)[C@@H]1CCC(C)C[C@H]1c1c(O)cc(CCCCC)cc1O` (stereo partly specified) showed a Ki (Cannabinoid receptor 1) of 0.145 µM.

Work on `C=C(C)[C@@H]1CCC(C)=C[C@H]1c1c(O)cc(CCC)cc1O` [CANNABIDIVARIN] yielded an IC50 (Caco-2) of 10.1 µM and an MED (Rattus norvegicus [5]) of 200000 µg/kg.
